# In US20230146422A1, “ANIMAL MODEL FOR STUDYING CANCER IMMUNOTHERAPY” (ONCOFACTORY, priority 2020, published 2023):
# How the values were obtained:
# [1] = test system: human melanoma A375 cell line; assay: Tumor volume in avian embryo co-grafted with A375 melanoma cells and human PBMCs (FIG. 12A); format: in vivo; conditions: A375 + human PBMCs co-graft, Keytruda injected 24 hours post-grafting, vs excipient, two to three days post-grafting
# Description: To determine whether tumors composed of mixed human tumoral cells and immune cells are sensitive to anti-PD1 antibody treatment, the human melanoma A375 cell line was selected for the experiments. Indeed, this cell line was recently reported to express significant levels of PDL1 and to respond to anti-PD1 immunotherapy (Kuryk L, Møller A W, Jaderberg M, 2019).
# A375 melanoma cells were cultured and co-grafted with human PBMC cells as previously described.
# Two to three days post-grafting, embryos were collected and processed for imaging with a confocal light sheet microscope. The volume of the tumors was quantified using IMARIS software.
# [2] = test system: CD4 and CD8 T cells of grafted human PBMCs; assay: Activation and exhaustion markers on T cells of PBMCs grafted or co-grafted with MDAMB436 cells in avian embryo, with or without Keytruda (FIG. 11C); format: in vivo; conditions: FACS 48 hours post-grafting
# Description: (11C) PBMC were co-grafted with tumoral cells: Pmela (a PDL1 negative cell line) or MDAMB436 (a PDL1 weak positive cell line).
# Markers of activation (CD69, HLADR on the left) and exhaustion (CTLA4, PD1, on the right) were determined in PBMCs after co-grafting with human tumoral cells (Pmela or MDAM) in an avian embryo. Values are expressed in frequency over CD4+ and CD8+ populations in ratios of total identified lymphocytes (CD3+CD4+ and CD3+CD8+). Standard Deviations show data from a pool of PBMC from different healthy donors. Left Graph: CD4+, right graph: CD8+.
# Then, MDAMB436 cells or Pmela cells were co-grafted with human PBMC cells.
# At two days (48 hours) post-grafting, PBMCs were isolated from grafted embryos and analyzed by FACS.
# Finally, grafted PBMCs were isolated by Percoll density separation and stained cells for markers of activation (CD69/HLADR) and exhaustion (CTLA4/PD1).
# Standard Deviations show data from a pool of PBMC from different healthy donors. Values are expressed in ratios of the specific marker over CD3+CD4+ and CD3+CD8+ populations.
# [3] = test system: tumor sample from a patient affected by a metastatic melanoma; assay: Metastasis number and volume in avian embryo co-grafted with human PBMCs and patient metastatic melanoma sample (FIG. 12C); format: in vivo; conditions: patient metastatic melanoma sample + human PBMCs co-graft, vs NaCl
# Description: Metastasis number (on the left) and volume of metastatic tumors (in the middle) have been assessed. On the right, pictures show the extension of the tumor after NaCl treatment (on top) and after Keytruda treatment (on the bottom).
# (§1) The same experiment of example 9 was performed with other cancer cells: • MDAMB 231, well-known to be responsive to immunotherapy, and • a tumor sample issued from a patient affected by a metastatic melanoma.
# Also, the number of metastases formed by patient tumoral cells in the avian embryonic tissues has been assessed by the following of fluorescently-labelled tumor cells, and subsequent quantification of the fluorescent signal in the embryo.
# [4] = test system: T lymphocytes of PBMCs co-grafted with MDAMD231 tumoral cells; assay: Activation and exhaustion markers on immune cells co-grafted with MDAMD231 cells in avian embryo, Keytruda treatment (FIG. 11D); format: in vivo, human; conditions: PBMCs co-grafted with MDAMD231, Keytruda 5 mg/ml, 24 hours, vs NaCl
# Excerpt: Expression of activation and exhaustion markers on co-grafted immune cells was quantified.
# MDAMB 231 tumoral cells = assay: Tumor volume in avian embryo co-grafted with MDAMB 231 cells and human PBMCs (FIG. 12B); format: in vivo; conditions: MDAMB 231 + human PBMCs co-graft, vs NaCl, raw and BSA-normalized
# Description: as §1
substance,measurement,setting,value
Pemzolibrumab [Keytruda],volume of the tumor,[1],decreases significantly
same,levels of CTLA4 on the CD8 compartment,[2]; embryo treated 24 hours with Keytruda (PD1 blocking),very high levels
same,PD1 expression/accessibility on CD8 T cells,[2]; embryo treated 24 hours with Keytruda,minimization
same,metastasis number (ability of tumor cells to metastasis),[3],significantly decreased
same,metastatic-volume,[3],significant reduction
same,expression of exhaustion marker PD1,[4],decreased
same,expression of exhaustion marker TIM-3,[4],decreased
same,tumor volume,MDAMB 231 tumoral cells,significant reduction
